The source made the active and inactive calls.
What was measured:
[1] = antiviral protection against BTV-induced cell death – arbovirus, BSR cells, confirmation (AID 1250); type: functional;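 further: protection from viral cytopathic effect measured as cell viability by ATP luminescence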
[2] = molecular target: T1, Aminopeptidase N (Plasmodium falciparum FcB1/Columbia, UniProt O96935); assay: malaria alanyl aminopeptidase activity blockers – biochemical, fluorogenic H-Leu-NHMec substrate, 1536-well (AID 1445); design: species or system Plasmodium falciparum 3D7, 3D7
T1 sequence (O96935 whole entry): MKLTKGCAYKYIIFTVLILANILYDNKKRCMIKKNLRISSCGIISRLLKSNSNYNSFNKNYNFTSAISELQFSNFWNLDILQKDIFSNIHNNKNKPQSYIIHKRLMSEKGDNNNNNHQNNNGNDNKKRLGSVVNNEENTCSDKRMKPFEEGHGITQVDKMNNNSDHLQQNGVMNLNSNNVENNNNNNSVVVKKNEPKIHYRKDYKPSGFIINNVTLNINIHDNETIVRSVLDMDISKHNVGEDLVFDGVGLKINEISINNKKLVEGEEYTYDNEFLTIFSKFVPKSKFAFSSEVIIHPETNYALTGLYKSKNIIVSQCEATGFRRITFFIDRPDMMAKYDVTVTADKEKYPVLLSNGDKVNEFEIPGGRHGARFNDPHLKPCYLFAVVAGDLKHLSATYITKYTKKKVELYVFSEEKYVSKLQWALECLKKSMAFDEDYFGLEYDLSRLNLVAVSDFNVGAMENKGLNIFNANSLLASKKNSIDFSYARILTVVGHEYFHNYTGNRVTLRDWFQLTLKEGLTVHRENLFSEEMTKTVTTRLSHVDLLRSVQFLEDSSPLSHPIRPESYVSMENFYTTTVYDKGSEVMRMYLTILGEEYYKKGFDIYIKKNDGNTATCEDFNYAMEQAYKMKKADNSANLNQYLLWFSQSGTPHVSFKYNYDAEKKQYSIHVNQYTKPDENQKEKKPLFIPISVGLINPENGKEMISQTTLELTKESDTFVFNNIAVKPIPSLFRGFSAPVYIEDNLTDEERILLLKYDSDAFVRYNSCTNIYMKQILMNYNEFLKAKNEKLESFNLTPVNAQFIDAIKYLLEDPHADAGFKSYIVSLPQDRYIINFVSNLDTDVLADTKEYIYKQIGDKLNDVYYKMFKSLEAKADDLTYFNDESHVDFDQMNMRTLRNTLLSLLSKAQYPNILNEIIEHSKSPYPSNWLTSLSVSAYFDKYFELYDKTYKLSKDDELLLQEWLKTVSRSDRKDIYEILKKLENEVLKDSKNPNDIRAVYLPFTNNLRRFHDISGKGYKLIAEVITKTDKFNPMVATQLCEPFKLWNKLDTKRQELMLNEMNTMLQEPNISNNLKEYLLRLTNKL

[3] = molecular target: T2, Leucine aminopeptidase (Plasmodium falciparum 3D7, UniProt Q8IL11); assay: P. falciparum M17LAP inhibitors, primary screen, biochemical, fluorogenic H-Leu-NHMec substrate, 1536-well (AID 1619); type: functional
T2 sequence (Q8IL11 whole entry): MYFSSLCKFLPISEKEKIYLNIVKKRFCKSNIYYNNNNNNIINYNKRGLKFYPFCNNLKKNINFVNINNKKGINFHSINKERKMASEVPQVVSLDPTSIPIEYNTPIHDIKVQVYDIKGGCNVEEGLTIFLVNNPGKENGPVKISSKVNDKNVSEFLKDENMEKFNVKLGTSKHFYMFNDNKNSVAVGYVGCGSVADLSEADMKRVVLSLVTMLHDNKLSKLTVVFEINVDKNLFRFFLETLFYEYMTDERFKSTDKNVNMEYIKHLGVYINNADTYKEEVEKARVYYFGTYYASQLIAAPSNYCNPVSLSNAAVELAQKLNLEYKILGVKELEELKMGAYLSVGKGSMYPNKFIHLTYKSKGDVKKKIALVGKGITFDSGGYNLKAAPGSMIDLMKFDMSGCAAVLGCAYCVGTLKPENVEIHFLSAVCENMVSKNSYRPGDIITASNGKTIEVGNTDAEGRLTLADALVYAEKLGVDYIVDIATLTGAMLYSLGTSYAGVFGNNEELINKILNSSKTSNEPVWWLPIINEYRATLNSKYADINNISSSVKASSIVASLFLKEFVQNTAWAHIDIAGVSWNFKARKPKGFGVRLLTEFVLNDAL

[4] = molecular target: Cytochrome P450 2C19 (Homo sapiens, UniProt P33261); assay: qHTS Assay for Inhibitors and Substrates of Cytochrome P450 2C19. [Related pubchem assays: 410 ]; type: ADME; conditions: read-out: Potency
Sequence of Cytochrome P450 2C19 (P33261 whole entry): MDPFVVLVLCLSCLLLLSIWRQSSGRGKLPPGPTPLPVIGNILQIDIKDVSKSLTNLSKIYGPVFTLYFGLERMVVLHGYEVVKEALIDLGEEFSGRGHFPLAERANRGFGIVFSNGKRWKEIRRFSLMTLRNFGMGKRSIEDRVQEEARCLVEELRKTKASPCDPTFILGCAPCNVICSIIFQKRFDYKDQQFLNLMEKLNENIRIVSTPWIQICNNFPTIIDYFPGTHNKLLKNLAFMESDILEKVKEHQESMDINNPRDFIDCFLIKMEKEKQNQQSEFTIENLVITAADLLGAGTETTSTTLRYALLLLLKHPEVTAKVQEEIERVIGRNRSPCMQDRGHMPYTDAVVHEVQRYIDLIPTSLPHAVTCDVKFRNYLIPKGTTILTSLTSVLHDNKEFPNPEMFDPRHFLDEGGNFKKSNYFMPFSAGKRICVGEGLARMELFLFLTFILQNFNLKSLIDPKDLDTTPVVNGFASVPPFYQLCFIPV

[5] = molecular target: Cytochrome P450 3A4 (Homo sapiens, UniProt P08684); conditions: Potency;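 further: confirmatory qHTS run detecting inhibitors and substrates of CYP3A4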
Sequence of Cytochrome P450 3A4 (P08684 whole entry): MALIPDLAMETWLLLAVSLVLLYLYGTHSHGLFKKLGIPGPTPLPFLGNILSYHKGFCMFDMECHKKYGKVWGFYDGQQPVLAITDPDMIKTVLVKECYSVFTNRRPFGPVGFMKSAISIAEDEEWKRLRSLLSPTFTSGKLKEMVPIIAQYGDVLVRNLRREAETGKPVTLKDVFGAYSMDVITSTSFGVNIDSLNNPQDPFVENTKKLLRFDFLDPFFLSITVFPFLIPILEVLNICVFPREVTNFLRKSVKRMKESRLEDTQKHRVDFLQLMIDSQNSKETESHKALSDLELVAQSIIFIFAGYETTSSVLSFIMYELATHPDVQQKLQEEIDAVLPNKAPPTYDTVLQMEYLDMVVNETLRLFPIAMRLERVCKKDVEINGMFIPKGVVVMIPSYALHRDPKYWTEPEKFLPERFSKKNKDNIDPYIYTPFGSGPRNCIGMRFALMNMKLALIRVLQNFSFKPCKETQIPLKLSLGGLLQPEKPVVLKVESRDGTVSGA

[6] = molecular target: Photoreceptor-specific nuclear receptor (Homo sapiens, UniProt Q9Y5X4); assay: ligands suppressing NR2E3 nuclear receptor activity – biochemical, TR-FRET, dose response (AID 463256); type: functional
Sequence of Photoreceptor-specific nuclear receptor (Q9Y5X4 whole entry): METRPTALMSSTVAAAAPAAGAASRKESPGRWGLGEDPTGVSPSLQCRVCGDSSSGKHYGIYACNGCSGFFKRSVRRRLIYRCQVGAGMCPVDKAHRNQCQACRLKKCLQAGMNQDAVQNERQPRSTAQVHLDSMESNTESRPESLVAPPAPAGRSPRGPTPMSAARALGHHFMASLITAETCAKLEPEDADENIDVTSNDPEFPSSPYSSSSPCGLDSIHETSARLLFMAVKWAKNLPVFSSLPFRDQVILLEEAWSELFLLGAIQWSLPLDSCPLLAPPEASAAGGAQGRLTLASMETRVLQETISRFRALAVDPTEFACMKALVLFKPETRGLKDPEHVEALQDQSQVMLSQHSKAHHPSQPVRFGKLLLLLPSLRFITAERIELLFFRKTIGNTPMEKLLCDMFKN

[7] = molecular target: Peroxisome proliferator-activated receptor gamma/Nuclear receptor corepressor 2 (Homo sapiens, UniProt P37231+Q9Y618); assay: Counterscreen for NR2E3 inverse agonists: TR-FRET-based biochemical high throughput dose response assay to identify inverse agonists of the interaction between peroxisome proliferator-activated receptor gamma (PPARg) and nuclear receptor co-repressor 2 (NCOR2).; type: functional
Sequence of Peroxisome proliferator-activated receptor gamma/Nuclear receptor corepressor 2 (P37231 whole entry): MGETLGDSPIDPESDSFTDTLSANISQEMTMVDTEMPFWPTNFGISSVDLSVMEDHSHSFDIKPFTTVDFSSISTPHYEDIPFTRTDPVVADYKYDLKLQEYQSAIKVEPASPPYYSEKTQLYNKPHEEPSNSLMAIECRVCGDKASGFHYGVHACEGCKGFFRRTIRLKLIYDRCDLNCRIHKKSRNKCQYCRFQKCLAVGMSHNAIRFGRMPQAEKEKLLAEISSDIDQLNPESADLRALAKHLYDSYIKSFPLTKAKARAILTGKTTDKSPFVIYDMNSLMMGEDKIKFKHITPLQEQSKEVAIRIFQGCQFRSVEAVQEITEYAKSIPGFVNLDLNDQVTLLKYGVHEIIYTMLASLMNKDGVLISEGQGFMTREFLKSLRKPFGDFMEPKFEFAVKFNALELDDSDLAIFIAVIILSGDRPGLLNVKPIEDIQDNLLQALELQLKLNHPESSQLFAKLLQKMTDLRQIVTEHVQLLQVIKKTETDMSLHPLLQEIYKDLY
Sequence of Peroxisome proliferator-activated receptor gamma/Nuclear receptor corepressor 2 (Q9Y618 whole entry): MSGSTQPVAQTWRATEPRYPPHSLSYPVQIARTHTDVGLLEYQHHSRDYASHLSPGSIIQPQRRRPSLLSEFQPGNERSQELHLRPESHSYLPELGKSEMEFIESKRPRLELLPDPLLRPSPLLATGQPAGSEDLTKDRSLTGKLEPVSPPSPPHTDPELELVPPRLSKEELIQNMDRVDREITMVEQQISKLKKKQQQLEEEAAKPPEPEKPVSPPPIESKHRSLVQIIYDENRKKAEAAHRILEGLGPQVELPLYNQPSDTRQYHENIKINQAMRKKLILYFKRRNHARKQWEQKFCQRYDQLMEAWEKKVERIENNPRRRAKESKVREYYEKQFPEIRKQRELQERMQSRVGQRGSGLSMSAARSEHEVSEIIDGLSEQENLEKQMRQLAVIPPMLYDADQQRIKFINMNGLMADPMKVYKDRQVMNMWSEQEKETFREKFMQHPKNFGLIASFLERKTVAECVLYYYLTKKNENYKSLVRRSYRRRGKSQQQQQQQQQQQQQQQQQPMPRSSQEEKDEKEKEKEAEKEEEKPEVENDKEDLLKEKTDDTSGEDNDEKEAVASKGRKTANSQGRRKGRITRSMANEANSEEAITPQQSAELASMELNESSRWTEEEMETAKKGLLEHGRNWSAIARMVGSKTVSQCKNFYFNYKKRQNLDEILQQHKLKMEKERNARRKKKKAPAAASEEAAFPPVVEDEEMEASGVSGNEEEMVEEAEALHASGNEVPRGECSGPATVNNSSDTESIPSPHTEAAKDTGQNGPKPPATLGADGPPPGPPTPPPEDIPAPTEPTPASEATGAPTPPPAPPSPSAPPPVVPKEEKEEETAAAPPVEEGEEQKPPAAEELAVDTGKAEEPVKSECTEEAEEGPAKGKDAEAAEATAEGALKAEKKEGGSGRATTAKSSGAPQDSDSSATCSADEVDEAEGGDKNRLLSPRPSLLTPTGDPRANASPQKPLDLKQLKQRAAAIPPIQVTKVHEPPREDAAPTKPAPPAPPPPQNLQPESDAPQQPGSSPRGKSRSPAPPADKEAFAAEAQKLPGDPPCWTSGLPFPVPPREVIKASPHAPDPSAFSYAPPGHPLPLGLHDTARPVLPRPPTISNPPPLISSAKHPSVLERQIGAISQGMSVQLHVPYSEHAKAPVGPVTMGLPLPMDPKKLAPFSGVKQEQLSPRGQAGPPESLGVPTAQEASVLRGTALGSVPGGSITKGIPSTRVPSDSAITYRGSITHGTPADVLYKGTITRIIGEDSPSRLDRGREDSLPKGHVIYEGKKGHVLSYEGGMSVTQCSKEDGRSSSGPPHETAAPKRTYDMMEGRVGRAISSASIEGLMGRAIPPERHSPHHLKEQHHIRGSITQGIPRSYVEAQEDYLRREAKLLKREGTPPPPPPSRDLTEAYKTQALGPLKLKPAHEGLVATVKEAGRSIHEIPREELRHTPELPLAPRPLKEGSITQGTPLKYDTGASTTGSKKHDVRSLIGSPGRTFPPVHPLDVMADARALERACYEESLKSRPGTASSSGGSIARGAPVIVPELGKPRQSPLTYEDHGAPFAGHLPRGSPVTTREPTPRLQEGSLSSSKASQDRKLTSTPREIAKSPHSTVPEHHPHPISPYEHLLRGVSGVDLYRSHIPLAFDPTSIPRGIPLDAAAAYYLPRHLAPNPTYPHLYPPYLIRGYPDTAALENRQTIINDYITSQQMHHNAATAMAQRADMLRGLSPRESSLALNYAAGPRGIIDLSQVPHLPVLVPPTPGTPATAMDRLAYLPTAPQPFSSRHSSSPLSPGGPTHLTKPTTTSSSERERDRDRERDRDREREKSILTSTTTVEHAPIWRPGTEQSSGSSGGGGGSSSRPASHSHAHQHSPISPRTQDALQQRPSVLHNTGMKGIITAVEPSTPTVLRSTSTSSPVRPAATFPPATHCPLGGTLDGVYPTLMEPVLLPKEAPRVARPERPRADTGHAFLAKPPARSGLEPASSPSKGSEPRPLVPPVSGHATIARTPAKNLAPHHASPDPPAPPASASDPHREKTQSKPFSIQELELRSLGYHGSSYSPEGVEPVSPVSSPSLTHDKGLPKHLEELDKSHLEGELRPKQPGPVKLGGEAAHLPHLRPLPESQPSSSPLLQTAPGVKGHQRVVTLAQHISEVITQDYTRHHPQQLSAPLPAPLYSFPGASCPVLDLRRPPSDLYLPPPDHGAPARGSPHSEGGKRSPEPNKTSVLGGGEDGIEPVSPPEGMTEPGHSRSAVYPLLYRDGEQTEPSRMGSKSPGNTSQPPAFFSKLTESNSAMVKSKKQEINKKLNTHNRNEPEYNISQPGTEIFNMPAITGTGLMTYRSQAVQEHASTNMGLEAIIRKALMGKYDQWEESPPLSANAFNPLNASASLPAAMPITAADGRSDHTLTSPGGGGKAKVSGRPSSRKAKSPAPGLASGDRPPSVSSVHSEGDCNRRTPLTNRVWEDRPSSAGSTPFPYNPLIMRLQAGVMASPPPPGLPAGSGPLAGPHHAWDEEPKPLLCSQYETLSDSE

[8] = molecular target: T3, Protein RecA (Mycobacterium tuberculosis, UniProt P9WHJ3); assay: Fluorescence Cell-Free Homogeneous Dose Retest to Identify Inhibitors of RecA-Intein Splicing Activity. [Related pubchem assays (depositor defined):AID2097, AID2223, AID489010, AID492950]; type: functional
T3 sequence (P9WHJ3 whole entry): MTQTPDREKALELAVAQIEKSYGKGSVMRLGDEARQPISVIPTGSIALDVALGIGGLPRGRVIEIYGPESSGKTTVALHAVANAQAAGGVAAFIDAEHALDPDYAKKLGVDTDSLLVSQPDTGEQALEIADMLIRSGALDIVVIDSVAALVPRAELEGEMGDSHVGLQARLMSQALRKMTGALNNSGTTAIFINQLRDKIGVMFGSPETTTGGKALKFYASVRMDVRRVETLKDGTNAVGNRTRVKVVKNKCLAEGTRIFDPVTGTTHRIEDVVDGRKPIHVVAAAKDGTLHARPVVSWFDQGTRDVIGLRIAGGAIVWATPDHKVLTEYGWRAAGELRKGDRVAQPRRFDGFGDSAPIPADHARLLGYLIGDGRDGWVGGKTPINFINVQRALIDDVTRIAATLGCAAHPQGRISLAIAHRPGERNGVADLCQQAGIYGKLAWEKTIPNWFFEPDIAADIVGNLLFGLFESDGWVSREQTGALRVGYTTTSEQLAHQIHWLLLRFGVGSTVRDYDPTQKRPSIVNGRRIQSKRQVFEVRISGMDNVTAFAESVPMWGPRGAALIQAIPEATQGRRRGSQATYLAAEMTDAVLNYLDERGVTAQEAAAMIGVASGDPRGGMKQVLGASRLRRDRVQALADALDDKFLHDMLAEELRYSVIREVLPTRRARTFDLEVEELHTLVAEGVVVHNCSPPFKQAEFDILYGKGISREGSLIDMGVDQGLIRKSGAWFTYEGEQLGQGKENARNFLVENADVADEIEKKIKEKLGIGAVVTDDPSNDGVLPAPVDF

[9] = M. tuberculosis H37Rv growth inhibitors, H37Rv strain (AID 1626); type: functional
[10] = molecular target: T4, Mannose-6-phosphate isomerase (Homo sapiens, UniProt P34949); assay: MPI inhibition at elevated mannose 6-phosphate – biochemical, fluorescence intensity, high mannose 6-phosphate, primary screen (AID 1220)
T4 sequence (P34949 whole entry): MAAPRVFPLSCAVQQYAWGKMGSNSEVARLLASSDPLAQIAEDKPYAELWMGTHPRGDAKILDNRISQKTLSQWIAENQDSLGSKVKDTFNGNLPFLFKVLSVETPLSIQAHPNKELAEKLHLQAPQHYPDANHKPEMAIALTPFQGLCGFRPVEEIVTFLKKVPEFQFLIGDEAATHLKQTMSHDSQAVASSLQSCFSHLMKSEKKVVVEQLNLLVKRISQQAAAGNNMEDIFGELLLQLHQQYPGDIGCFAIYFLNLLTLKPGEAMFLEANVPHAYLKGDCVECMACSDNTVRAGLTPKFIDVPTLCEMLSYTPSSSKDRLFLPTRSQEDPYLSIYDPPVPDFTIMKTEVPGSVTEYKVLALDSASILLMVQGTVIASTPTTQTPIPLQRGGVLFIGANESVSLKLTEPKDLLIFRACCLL

[11] = rise of 4N DNA cells, HeLa – IC50, dose response (AID 1117351); type: functional, cell-based
[12] = rise of 2N DNA cells, HeLa – IC50, dose response (AID 1117349); type: functional, cell-based
[13] = IC50 of insulin release inhibition, rat insulinoma INS-1E line, 5 mM glucose, cell-based (AID 1117331); type: functional
[14] = growth inhibition of yeast DHODH-expressing 3D7 parasites – SYBR Green, dry powder samples, dose response (AID 1159570); type: functional, cell-based;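 further: parasite growth measured after 72 hours of compound exposure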
[15] = Dd2 malaria parasite growth inhibition potency – SYBR Green, dry powder samples, dose response (AID 1159566); type: functional, cell-based;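 further: potency for growth inhibition with lower SYBR green DNA signal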
[16] = toxicity to human HepG2 hepatoma cells – cell-based, plate reader, dry powder samples, cytotoxicity control, dose response (AID 1159569); type: functional;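 further: inhibitor potency with signal falling toward the positive control level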
[17] = growth inhibition of PfATP4-mutant resistant parasites – NITD609-resistant line, SYBR Green, dry powder, dose response (AID 1159571); type: functional, cell-based;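 further: parasites synchronized at ring stage by sorbitol before testing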
[18] = P. falciparum Dd2 growth inhibitors, dose response, SYBR Green, cherry-picked samples (AID 1159567); type: functional, cell-based
[19] = toxicity to human hepatoma HepG2 cells – cell-based, cherry-picked samples, cytotoxicity control, dose response (AID 1159577); type: functional

With `CC(C)S(=O)(=O)C1=NSC2=NC(=O)/C(=C\c3ccc(-c4ccccc4)o3)C(=N)N21` the IC50 [1] was 27.1 µM (active), the IC50 [2] was 45.6 µM (active) and the IC50 [3] was 12.6 µM (active).
For `CCC/C=C/C1C(=O)C2OC2C2(OCC(CC)(CC)CO2)C1CO` (stereo unspecified), the AC50 [4] was 0.004 µM (inconclusive) and the AC50 [5] was 3.98 µM (inconclusive).
In the case of `Cc1nc2c(c3c1[nH]c1ccccc13)C(O)CC(C)(C)C2` (stereo unspecified), the IC50 [1] is reported as 21.9 µM (active).
For `CS(=O)(=O)N(CC(=O)NC1CCCCC1)Cc1ccc(F)cc1`, the IC50 [6] was > 39.8 µM (not active) and the IC50 [7] was > 39.8 µM (not active).
With `CC1CCC2C(=O)N3C(CCC(C)[C@@H]3c3cccc(N4CCOCC4)c3)C(=O)N2C1c1cccc(Br)c1` (stereo partly specified) the AC50 [4] was 7.94 µM (inconclusive).
With `COc1ccc(/N=C/C2=C(O)c3ccccc3CC2)cc1` the EC50 [8] was 18.6 µM (active), the IC50 [9] was > 100 µM (active) and the IC50 [10] was < 0.391 µM (not active).
With `CCN(CC)CCNC(=O)C1C(C)=NC(/C=C2\C(=O)Nc3ccc(F)cc32)=C1C` (stereo unspecified) the IC50 [11] was > 10 µM (inactive), the IC50 [12] was > 10 µM (inactive) and the IC50 [13] was > 33.3 µM (inactive).
For `COc1cccc(-c2ccc3c(c2)[C@@H]2[C@@H](CCN2C(=O)C2CCCC2)[C@@H](CO)N3)c1`, the AC50 [14] was 2.57 µM (active), the AC50 [15] was 2.12 µM (active) and the AC50 [16] was 32.9 µM (active). The AC50 [17] was 1.65 µM (active), the AC50 [18] was 2.25 µM (active) and the AC50 [19] was > 39 µM (inactive).

Source: ChEMBL document CHEMBL1201862, “PubChem BioAssay data set” (2004)
